Reference: patent US6335363B1, “Use of inhibitors of the KQTI channel and methods of controlling and treating diseases caused by helminths and ectoparasites” (Aventis Pharma Deutschland GmbH, priority 1998, dated 2002)

System: KQT1 channel
Assay: Activity against KQT1 in Xenopus oocytes (two-microelectrode voltage clamp)
Format: cell-based, Caenorhabditis elegans
Design: dose or concentration left out as unconfirmed
Details: KQT1 expressed in Xenopus oocytes; slowly activated potassium current
Procedure: To test the ct of IKS channel blockers on the KQT1 channel, electrophysiological studies were carried out on Xenopus oocytes which express the KQT1 channel (specific IKS channel of the nematode Caenorhabditis elegans). An adult female frog (Xenopus laevis) was […] oocytes of all development stages were removed from the ovarian bags. Oocytes of the development stages V and VI were selected; using a nanoliter injector mounted in a micromanipulator, 10 ng of the KQT1-specific m-RNA were injected into each oocyte. After 1-4 days, sufficient KQT1 channels were expressed for it to be possible to measure the corresponding currents. For measuring the slowly activated potassium currents under constant intracellular conditions, the two-microelectrode voltage clamp method was employed. This method is based on operating with 2 intracellular microelectrodes; the first electrode measures the membrane potential against a reference electrode, the second electrode is used to inject current which is necessary to maintain a desired potential. During the measurement, the holding potential was adjusted to -80 mV, which corresponds to the open-circuit membrane potential. The electrophysiological measuring stand comprised a vibration-damped experiment table on which were mounted a purpose-made measuring chamber, 2 micromanipulators, in each case with a preamplifier and a holder for injection microelectrodes, and a stereomicroscope. The complete measuring stand was surrounded by a Faraday cage to minimize electrical disturbances during the measurement. During the measurement, the oocyte was suspended in a solution of ND96 buffer. To activate the voltage-dependent IKS channel, the oocyte membrane was depolarized by a voltage jump from the holding potential (-80 mV) to 0 mV, and this state was maintained for 10 seconds before the holding potential was reestablished. The time profile of the measuring protocol was repeated every 45 s. During the depolarization phase, the slowly activated potassium current was measured.

SMILES	Inhibition [%]
CCS(=O)(=O)N(CC(=O)Nc1ccncc1)C1CC(C)(C)Oc2ccc(F)cc21 (stereo not drawn) [2-[ETHANESULFONYL-(6- FLUORO-2,2-DIMETHYL- CHROMAN-4-YL)-AMINO]- N-PYRIDIN-4-YL- ACETAMIDE]	35
CCS(=O)(=O)N(C)C1CCCCc2ccc(F)cc21 (stereo not drawn)	78
CCS(=O)(=O)N(CCCC(F)(F)F)C1CC(C)(C)Oc2cc(Cl)c(Cl)cc21 (stereo not drawn) [6,7-DICHLORO-4-[N- ETHYLSULFONYL-N- (4,4,4-TRIFLUORO- BUTYL)AMINO]-2,2- DIMETHYLCHROMANE]	88
CCS(=O)(=O)N(CC(=O)NCCN(C)Cc1ccccc1)C1CC(C)(C)Oc2ccc(F)cc21 (stereo not drawn) [N-[2-(BENZYL-METHYL- AMINO)-ETHYL]-2- [ETHANESULFONYL-(6- FLUORO-2,2-DIMETHYL- CHROMAN-4-YL)-AMINO]- ACETAMIDE]	36
CCS(=O)(=O)N(CC(=O)NCCN(C)C)C1CC(C)(C)Oc2ccc(F)cc21 (stereo not drawn) [N-(2-DIMETHYLAMINO- ETHYL)-2-[ETHANE- SULFONYL-(6-FLUORO- 2,2-DIMETHYL-CHROMAN- 4-YL)-AMINO]- ACETAMIDE]	22
CCS(=O)(=O)N(C)C1CC(C)(C)Oc2cc(OC)c(OC)cc21 (stereo not drawn) [4-N-ETHYLSULFONYL-N- METHYLAMINO-6,7 DIMETHOXY-2,2- DIMETHYLCHROMANE]	30
CCS(=O)(=O)N(C)C1CC(C)(C)Oc2cc(Cl)c(F)cc21 (stereo not drawn) [7-CHLORO-4-N- ETHYLSULFONYL-N- METHYLAMINO-6- FLUORO-2,2- DIMETHYLCHROMANE]	89
CCS(=O)(=O)N(C)C1c2cc(C#N)ccc2OC(C)(C)C1O (stereo not drawn) [6-CYANO-4-TRANS-(N- ETHYLSULFONYL-N- METHYLAMINO)-3 HYDROXY-2,2- DIMETHYLCHROMANE]	40
CN(C1=CC(C)(C)Oc2ccc(OCCCC(F)(F)F)cc21)S(C)(=O)=O [N-[2,2-DIMETHYL-6-(4,4,4- TRIFLUOROBUTOXY)-2H- CHROMEN-4-YL]-N- METHYL- METHANESULFONAMIDE]	92
